Our source for the IC50 values is patent US10472364B2 (Calithera Biosciences, Inc., priority 2016, dated 2019).

The term IC50 denotes the point on the concentration scale where inhibition reaches its midpoint. A high value points to lower potency.

For the assay, the target named is endogenous, cell-bound CD73 on SK-MEL-28 cells (Homo sapiens (Human), UniProt P21589). The assay can be described thus: Inhibition of endogenous, cell-bound CD73 enzyme activity in SK-MEL-28 cells (Malachite Green). The class given is cell-based. To be noted: 100 μM AMP, 30 minutes at room temperature. The protocol: The day before the experiment, 5000 cells were plated per well in a 96-well plate. Cells were washed twice with […] reaction buffer (20 mM HEPES, pH 7.4, 125 mM NaCl, 1 mM KCl, 2 mM MgCl2, 10 mM glucose) to remove residual inorganic phosphate. After washing, assays contained serial dilutions of test compounds and 100 μM of AMP in a total volume of 200 μL reaction buffer, with a final DMSO concentration≤0.5%. After 30 minutes at room temperature, supernatant was removed from the cells. […] The concentration of inorganic phosphate was determined using a phosphate standard curve to determine IC50.
Sequence of endogenous, cell-bound CD73 on SK-MEL-28 cells (P21589 27-574): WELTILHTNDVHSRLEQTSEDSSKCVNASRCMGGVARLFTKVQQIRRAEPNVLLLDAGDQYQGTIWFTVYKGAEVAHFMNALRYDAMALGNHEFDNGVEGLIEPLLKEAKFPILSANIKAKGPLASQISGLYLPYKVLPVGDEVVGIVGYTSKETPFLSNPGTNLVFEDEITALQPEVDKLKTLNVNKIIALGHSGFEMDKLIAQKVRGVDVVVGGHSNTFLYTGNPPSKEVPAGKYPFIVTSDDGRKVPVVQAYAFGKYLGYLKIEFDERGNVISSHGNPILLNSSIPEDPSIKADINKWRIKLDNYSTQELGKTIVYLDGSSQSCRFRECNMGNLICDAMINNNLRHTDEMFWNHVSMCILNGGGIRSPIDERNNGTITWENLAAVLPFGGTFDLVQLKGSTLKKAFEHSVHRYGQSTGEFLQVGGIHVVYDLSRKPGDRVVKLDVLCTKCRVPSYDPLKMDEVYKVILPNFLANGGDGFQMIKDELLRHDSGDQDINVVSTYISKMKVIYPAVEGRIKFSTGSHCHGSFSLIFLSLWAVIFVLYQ
`CCOC(=O)C(Cc1ccc(OC(F)(F)F)cc1)(OC[C@H]1O[C@@H](n2cnc3c(N)nc(Cl)nc32)[C@@H](F)[C@@H]1O)C(=O)O` (single isomer, unassigned) [compound 37]: the IC50 was found to be 0.598 µM.

Consider `CCOC(=O)C(Cc1ccc(OC(F)(F)F)cc1)(OC[C@H]1O[C@@H](n2cnc3c(N)nc(Cl)nc32)[C@@H](F)[C@@H]1O)C(=O)O` (single isomer, unassigned) [compound 38], for which 1.48 µM corresponded to half-maximal inhibition (IC50). `COC(=O)C(Cc1ccc(-c2ccccc2)cc1)(OC[C@H]1O[C@@H](n2cnc3c(N)nc(Cl)nc32)[C@@H](F)[C@@H]1O)C(=O)O` (single isomer, unassigned) [compound 81]: the IC50 turned out to be 2.11 µM. With `COC(=O)C(Cc1ccc(-c2ccccc2)cc1)(OC[C@H]1O[C@@H](n2cnc3c(N)nc(Cl)nc32)[C@@H](F)[C@@H]1O)C(=O)O` (single isomer, unassigned) [compound 82], the midpoint of inhibition, the IC50, lay at 4.12 µM. As to `Nc1nc(Cl)nc2c1ncn2[C@@H]1O[C@H](COC(Cc2ccccc2)(C(=O)O)C(=O)O)[C@@H](O)[C@@H]1F` [compound 6, 2-(((2R,3R,4S,5R)-5-(6-amino-2-chloro-9H-purin-9-yl)-4-fluoro-3-hydroxytetrahydro-furan-2-yl)methoxy)-2-benzylmalonic acid], the concentration for half-maximal inhibition (IC50) is 0.489 µM.

In the case of `Nc1nc(Cl)nc2c1ncn2[C@@H]1O[C@H](COC(Cc2ccc(Cl)nc2)(C(=O)O)C(=O)O)[C@@H](O)[C@@H]1F` [compound 8, 2-(((2R,3R,4S,5R)-5-(6-amino-2-chloro-9H-purin-9-yl)-4-fluoro-3-hydroxytetrahydro-furan-2-yl)methoxy)-2-((6-chloropyridin-3-yl)methyl)malonic acid], the IC50 was determined as 0.772 µM. Regarding `Nc1nc(Cl)nc2c1ncn2[C@@H]1O[C@H](COC(Cc2cccc(Oc3ccccc3)c2)(C(=O)O)C(=O)O)[C@@H](O)[C@@H]1F` [compound 13, 2-(((2R,3R,4S,5R)-5-(6-amino-2-chloro-9H-purin-9-yl)-4-fluoro-3-hydroxytetrahydrofuran-2-yl)methoxy)-2-(3-phenoxybenzyl)malonic acid], the 50% inhibitory concentration (IC50) was 2.19 µM. Consider `Nc1nc(Cl)nc2c1ncn2[C@@H]1O[C@H](COC(Cc2cccc(OC(F)(F)F)c2)(C(=O)O)C(=O)O)[C@@H](O)[C@@H]1F` [compound 15, 2-(((2R,3R,4S,5R)-5-(6-amino-2-chloro-9H-purin-9-yl)-4-fluoro-3-hydroxytetrahydrofuran-2-yl)methoxy)-2-(3-(trifluoromethoxy)benzyl)malonic acid], for which the half-inhibitory concentration (IC50) was 1.58 µM. In turn, `Nc1nc(Cl)nc2c1ncn2[C@@H]1O[C@H](COC(Cc2cccc(C(F)(F)F)c2)(C(=O)O)C(=O)O)[C@@H](O)[C@@H]1F` [compound 16, 2-(((2R,3R,4S,5R)-5-(6-amino-2-chloro-9H-purin-9-yl)-4-fluoro-3-hydroxytetrahydrofuran-2-yl)methoxy)-2-(3-(trifluoromethyl)benzyl)malonic acid] showed an IC50 of 1.02 µM. The value for `Nc1nc(Cl)nc2c1ncn2[C@@H]1O[C@H](COC(Cc2ccc3ccccc3c2)(C(=O)O)C(=O)O)[C@@H](O)[C@@H]1F` [compound 17, 2-(((2R,3R,4S,5R)-5-(6-amino-2-chloro-9H-purin-9-yl)-4-fluoro-3-hydroxytetrahydrofuran-2-yl)methoxy)-2-(naphthalen-2-ylmethyl)malonic acid] was 1.81 µM; that for `Nc1nc(Cl)nc2c1ncn2[C@@H]1O[C@H](COC(CCCCO)(C(=O)O)C(=O)O)[C@@H](O)[C@@H]1F` [compound 18, 2-(((2R,3R,4S,5R)-5-(6-amino-2-chloro-9H-purin-9-yl)-4-fluoro-3-hydroxytetrahydrofuran-2-yl)methoxy)-2-(4-hydroxybutyl)malonic acid] was 6.32 µM; that for `Nc1nc(Cl)nc2c1ncn2[C@@H]1O[C@H](COC(CC(=O)O)(C(=O)O)C(=O)O)[C@@H](O)[C@@H]1F` [compound 19, 1-(((2R,3R,4S,5R)-5-(6-amino-2-chloro-9H-purin-9-yl)-4-fluoro-3-hydroxytetrahydrofuran-2-yl)methoxy)ethane-1,1,2-tricarboxylic acid] was 5.84 µM. In turn, `Nc1nc(Cl)nc2c1ncn2[C@@H]1O[C@H](COC(Cc2ccc(C(F)(F)F)cc2)(C(=O)O)C(=O)O)[C@@H](O)[C@@H]1F` [compound 20, 2-(((2R,3R,4S,5R)-5-(6-amino-2-chloro-9H-purin-9-yl)-4-fluoro-3-hydroxytetrahydrofuran-2-yl)methoxy)-2-(4-(trifluoromethyl)benzyl)malonic acid] returned a concentration for half-maximal inhibition (IC50) of 0.611 µM. As to `CS(=O)(=O)c1ccc(CC(OC[C@H]2O[C@@H](n3cnc4c(N)nc(Cl)nc43)[C@@H](F)[C@@H]2O)(C(=O)O)C(=O)O)cc1` [compound 21, 2-(((2R,3R,4S,5R)-5-(6-amino-2-chloro-9H-purin-9-yl)-4-fluoro-3-hydroxytetrahydrofuran-2-yl)methoxy)-2-(4-(methylsulfonyl)benzyl)malonic acid], the IC50 stood at 0.51 µM. `CN(C)C(=O)c1cccc(CC(OC[C@H]2O[C@@H](n3cnc4c(N)nc(Cl)nc43)[C@@H](F)[C@@H]2O)(C(=O)O)C(=O)O)c1` [compound 22] showed a concentration for half-maximal inhibition (IC50) of 1.14 µM.

The compound `Nc1nc(Cl)nc2c1ncn2[C@@H]1O[C@H](COC(Cc2ccsc2)(C(=O)O)C(=O)O)[C@@H](O)[C@@H]1F` [compound 23] came in with an IC50 of 0.48 µM.

Compound `Nc1cccc(CC(OC[C@H]2O[C@@H](n3cnc4c(N)nc(Cl)nc43)[C@@H](F)[C@@H]2O)(C(=O)O)C(=O)O)c1` [compound 27] registered a half-maximal inhibitory concentration (IC50) of 0.886 µM. With `CNC(=O)C(OC[C@H]1O[C@@H](n2cnc3c(N)nc(Cl)nc32)[C@@H](F)[C@@H]1O)P(=O)(O)O` (stereo partly drawn) [compound 29, (1-(((2R,3R,4S,5R)-5-(6-amino-2-chloro-9H-purin-9-yl)-4-fluoro-3-hydroxytetrahydrofuran-2-yl)methoxy)-2-(methylamino)-2-oxoethyl)phosphonic acid], the IC50 amounted to 5.72 µM.

Turning to `Nc1nc(Cl)nc2c1ncn2[C@@H]1O[C@H](COC(Cc2ccc(C(F)(F)F)nc2)(C(=O)O)C(=O)O)[C@@H](O)[C@@H]1F` [compound 32, 2-(((2R,3R,4S,5R)-5-(6-amino-2-chloro-9H-purin-9-yl)-4-fluoro-3-hydroxytetrahydrofuran-2-yl)methoxy)-2-((6-(trifluoromethyl)pyridin-3-yl)methyl)malonic acid], the IC50 turned out to be 2.32 µM. In the case of `N#CCC(OC[C@H]1O[C@@H](n2cnc3c(N)nc(Cl)nc32)[C@@H](F)[C@@H]1O)(C(=O)O)C(=O)O` [compound 33, 2-(((2R,3R,4S,5R)-5-(6-amino-2-chloro-9H-purin-9-yl)-4-fluoro-3-hydroxytetrahydrofuran-2-yl)methoxy)-2-(cyanomethyl)malonic acid], the half-maximal inhibitory concentration (IC50) is 3.38 µM. `N#Cc1ccc(CC(OC[C@H]2O[C@@H](n3cnc4c(N)nc(Cl)nc43)[C@@H](F)[C@@H]2O)(C(=O)O)C(=O)O)cc1` [compound 34]: the half-maximal inhibitory concentration (IC50) is 0.153 µM.

`N#Cc1cccc(CC(OC[C@H]2O[C@@H](n3cnc4c(N)nc(Cl)nc43)[C@@H](F)[C@@H]2O)(C(=O)O)C(=O)O)c1` [compound 35] gave an IC50 of 0.261 µM. With `Nc1nc(Cl)nc2c1ncn2[C@@H]1O[C@H](COC(Cc2ccc(OC(F)(F)F)cc2)(C(=O)O)C(=O)O)[C@@H](O)[C@@H]1F` [compound 36], the half-inhibitory concentration (IC50) was determined as 0.197 µM. As to `Nc1nc(Cl)nc2c1ncn2[C@@H]1O[C@H](COC(Cc2ccc(CO)cc2)(C(=O)O)C(=O)O)[C@@H](O)[C@@H]1F` [compound 39], the IC50 was 0.493 µM. In turn, `N#Cc1cccc(CC(OC[C@H]2O[C@@H](n3cnc4c(N)nc(N=[N+]=[N-])nc43)[C@@H](F)[C@@H]2O)(C(=O)O)C(=O)O)c1` [compound 40, 2-(((2R,3R,4S,5R)-5-(6-amino-2-azido-9H-purin-9-yl)-4-fluoro-3-hydroxytetrahydrofuran-2-yl)methoxy)-2-(3-cyanobenzyl)malonic acid] displayed an IC50 of 2.41 µM. Consider `CC(C)(C)OC(=O)Nc1nc(N=[N+]=[N-])nc2c1ncn2[C@@H]1O[C@H](COC(Cc2cccc(C#N)c2)(C(=O)O)C(=O)O)[C@@H](O)[C@@H]1F` [compound 41], for which the 50% inhibitory concentration (IC50) came to 4.88 µM. Take `Nc1nc(Cl)nc2c1ncn2[C@@H]1O[C@H](COC(Cc2cccc(C(=O)O)c2)(C(=O)O)C(=O)O)[C@@H](O)[C@@H]1F` [compound 42]: half-maximal inhibition (IC50) required 0.887 µM.

The compound `[N-]=[N+]=Nc1nc(N)c2ncn([C@@H]3O[C@H](COC(Cc4cccc(-c5nnn[nH]5)c4)(C(=O)O)C(=O)O)[C@@H](O)[C@@H]3F)c2n1` [compound 43] had a half-inhibitory concentration (IC50) of 9.92 µM.

Compound `Nc1nc(Cl)nc2c1ncn2[C@@H]1O[C@H](COC(Cc2cccc(F)c2)(C(=O)O)C(=O)O)[C@@H](O)[C@@H]1F` [compound 44] registered an IC50 of 1.01 µM.

On to `Nc1nc(Cl)nc2c1ncn2[C@@H]1O[C@H](COC(Cc2ccc(F)cc2)(C(=O)O)C(=O)O)[C@@H](O)[C@@H]1F` [compound 47], for which half-maximal inhibition (IC50) required 0.669 µM. Regarding `COc1cccc(CC(OC[C@H]2O[C@@H](n3cnc4c(N)nc(Cl)nc43)[C@@H](F)[C@@H]2O)(C(=O)O)C(=O)O)c1` [compound 49], the IC50 came to 2.38 µM.

`Nc1nc(Cl)nc2c1ncn2[C@@H]1O[C@H](COC(Cc2nnn[nH]2)(C(=O)O)C(=O)O)[C@@H](O)[C@@H]1F` [compound 50, 2-((1H-tetrazol-5-yl)methyl)-2-(((2R,3R,4S,5R)-5-(6-amino-2-chloro-9H-purin-9-yl)-4-fluoro-3-hydroxytetrahydrofuran-2-yl)methoxy)malonic acid] showed a concentration for half-maximal inhibition (IC50) of 6.37 µM. As to `Nc1nc(Cl)nc2c1ncn2[C@@H]1O[C@H](COC(Cc2ccccc2)(C(=O)O)C(=O)O)[C@@H](N)[C@H]1O` [compound 51, 2-(((2S,3S,4R,5R)-3-amino-5-(6-amino-2-chloro-9H-purin-9-yl)-4-hydroxytetrahydrofuran-2-yl)methoxy)-2-benzylmalonic acid], half-maximal inhibition (IC50) was put at 4.34 µM.
